These compounds were tested against T1, CXCR7 (Homo sapiens, UniProt P25106) (assay: PathHunter CHO-K1 CXCR7 b-arrestin recruitment assay (CXCR7 agonistic activity)). Conditions: PathHunter CHO-K1 CXCR7 b-arrestin cell line.
T1 construct: host or cells: CHO-K1 (PathHunter CHO-K1 CXCR7 b-arrestin cell line, stably transfected)
Assay type: cell-based
Outline: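 Stable CHO-K1 line with C-terminally ProLink-tagged CXCR7 and β-arrestin 2–EA fusion; β-arrestin recruitment restores β-gal activity, read by chemiluminescence after 1 h RT detection. Cells seeded 24 h, starved in OPTIMEM 3–4 h, exposed to compounds 90 min at 37 °C in HBSS/HEPES/BSA. Geometric-mean EC50 from repeated measurements.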

T1 sequence (P25106 whole entry): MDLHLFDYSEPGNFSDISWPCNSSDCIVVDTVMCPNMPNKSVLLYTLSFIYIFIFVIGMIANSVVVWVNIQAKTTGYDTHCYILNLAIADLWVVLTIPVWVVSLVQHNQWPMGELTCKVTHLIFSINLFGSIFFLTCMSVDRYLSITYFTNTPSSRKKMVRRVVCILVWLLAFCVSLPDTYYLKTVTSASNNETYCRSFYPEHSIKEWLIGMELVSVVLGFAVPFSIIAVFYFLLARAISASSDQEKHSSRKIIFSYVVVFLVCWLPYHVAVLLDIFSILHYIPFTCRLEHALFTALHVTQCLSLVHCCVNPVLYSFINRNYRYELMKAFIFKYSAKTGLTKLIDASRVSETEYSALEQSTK
T1 sequence (P32121 whole entry partner): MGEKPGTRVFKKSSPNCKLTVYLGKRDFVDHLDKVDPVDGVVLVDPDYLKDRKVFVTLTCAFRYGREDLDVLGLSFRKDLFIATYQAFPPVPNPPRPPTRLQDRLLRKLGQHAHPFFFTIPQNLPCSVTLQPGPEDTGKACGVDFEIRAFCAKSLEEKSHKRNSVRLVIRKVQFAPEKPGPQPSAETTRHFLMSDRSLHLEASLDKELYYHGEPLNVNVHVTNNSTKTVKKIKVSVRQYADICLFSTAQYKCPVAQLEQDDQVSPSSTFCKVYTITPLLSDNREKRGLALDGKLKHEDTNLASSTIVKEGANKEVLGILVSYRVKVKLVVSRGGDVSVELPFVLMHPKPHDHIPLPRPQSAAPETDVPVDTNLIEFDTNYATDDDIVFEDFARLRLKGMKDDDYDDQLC

Row | SMILES | EC50 [nM]
1 | COCCN1CCc2c(cccc2NCC(=O)N(CCN(C)C(=O)OC(C)(C)C)Cc2ccccc2C(F)(F)F)C1 [Example 297, {2-[{2-[2-(2-Methoxy-ethyl)-1,2,3,4-tetrahydro-isoquinolin-5-ylamino]-acetyl}-(2-trifluoromethyl-benzyl)-amino]-ethyl}-methyl-carbamic acid tert-butyl ester] | 461
2 | CC(C)CN1CCc2c(cccc2OCC(=O)N(CCN(C)C)Cc2ccccc2)C1 [compound 168, N-Benzyl-N-(2-dimethylamino-ethyl)-2-(2-isobutyl-1,2,3,4-tetrahydro-isoquinolin-5-yloxy)-acetamide] | 20
3 | COCCN1CCc2c(/C=C/C(=O)N(Cc3ccccc3C(F)(F)F)CC(C)(C)O)cccc2C1 [Example 323, (E)-N-(2-Hydroxy-2-methyl-propyl)-3-[2-(2-methoxy-ethyl)-1,2,3,4-tetrahydro-isoquinolin-5-yl]-N-(2-trifluoromethyl-benzyl)-acrylamide] | 182
4 | CN(C)CCN(Cc1ncccc1Cl)C(=O)/C=C/c1cccc2c1CCN(CC1CC1)C2 [Example 333, (E)-N-(3-Chloro-pyridin-2-ylmethyl)-3-(2-cyclopropylmethyl-1,2,3,4-tetrahydro-isoquinolin-5-yl)-N-(2-dimethylamino-ethyl)-acrylamide] | 2
5 | CN1CCc2c(cccc2NCC(=O)N(Cc2ccccc2)CC2CC2)C1 [Example 175, N-Benzyl-N-cyclopropylmethyl-2-(2-methyl-1,2,3,4-tetrahydro-isoquinolin-5-ylamino)-acetamide] | 339
6 | O=C(CNc1cccc2c1CN(CC1CC1)CC2)N(CCN1CCC(F)(F)CC1)Cc1ncccc1C(F)(F)F [compound 476] | 15
7 | CN(C)CCN(Cc1ccccc1C(F)(F)F)C(=O)CNc1cccc2c1CCN(C1COC1)C2 [Example 353, N-(2-Dimethylamino-ethyl)-2-(2-oxetan-3-yl-1,2,3,4-tetrahydro-isoquinolin-5-ylamino)-N-(2-trifluoromethyl-benzyl)-acetamide] | 85
8 | CC1c2cccc(NCC(=O)N(CCN(C)C)Cc3ccccc3C(F)(F)F)c2CCN1CC1CC1 (racemic) [Example 211, rac-2-((2-(Cyclopropylmethyl)-1-methyl-1,2,3,4-tetrahydroisoquinolin-5-yl)amino)-N-(2-(dimethylamino)ethyl)-N-(2-(trifluoromethyl)benzyl)acetamide] | 2
9 | O=C(Cc1cccc2c1CCN(CC1CC1)C2)N(CCN1CCCC1)Cc1ccccc1 [Example 3, N-Benzyl-2-(2-cyclopropylmethyl-1,2,3,4-tetrahydro-isoquinolin-5-yl)-N-(2-pyrrolidin-1-yl-ethyl)-acetamide] | 42
10 | CC(C)(C)OC(=O)N1CCC(N(Cc2ccccc2C(F)(F)F)C(=O)CNc2cccc3c2CCN(CC2CC2)C3)CC1 [Example 252, 4-[[2-(2-Cyclopropylmethyl-1,2,3,4-tetrahydro-isoquinolin-5-ylamino)-acetyl]-(2-trifluoromethyl-benzyl)-amino]-piperidine-1-carboxylic acid tert-butyl ester] | 426
11 | O=C(CNc1cccc2c1CCN(CC1CC1)C2)N(CCN1CCOCC1)Cc1ccccc1C(F)(F)F [Example 64, 2-(2-Cyclopropylmethyl-1,2,3,4-tetrahydro-isoquinolin-5-ylamino)-N-(2-morpholin-4-yl-ethyl)-N-(2-trifluoromethyl-benzyl)-acetamide] | 8
12 | CN(C)CCN(Cc1ccccc1)C(=O)COc1cccc2c1CCN(C)C2 [compound 164] | 84
13 | O=C(CNc1cccc2c1CCN(CC1CC1)C2)N(CCN1CCC(F)(F)CC1)Cc1ccccc1C(F)(F)F [Example 277, 2-(2-Cyclopropylmethyl-1,2,3,4-tetrahydro-isoquinolin-5-ylamino)-N-[2-(4,4-difluoro-piperidin-1-yl)-ethyl]-N-(2-trifluoromethyl-benzyl)-acetamide] | 28
14 | CCC(=O)N1CCc2cccc(NCC(=O)N(CCN(C)C)Cc3ccccc3)c2C1 [Example 188, N-Benzyl-N-(2-dimethylamino-ethyl)-2-(2-propionyl-1,2,3,4-tetrahydro-isoquinolin-8-ylamino)-acetamide] | 71
15 | CN(C)CCN(Cc1ncccc1C(F)(F)F)C(=O)CNc1cccc2c1CCN(C1CCOC1)C2 (racemic) [Example 365, rac-N-(2-Dimethylamino-ethyl)-2-[2-(tetrahydro-furan-3-yl)-1,2,3,4-tetrahydro-isoquinolin-5-ylamino]-N-(3-trifluoromethyl-pyridin-2-ylmethyl)-acetamide] | 35
16 | O=C(CNc1cccc2c1CCN(CC1CC1)C2)N(CCN1CCCC1)Cc1ccccc1F [Example 44, 2-(2-Cyclopropylmethyl-1,2,3,4-tetrahydro-isoquinolin-5-ylamino)-N-(2-fluoro-benzyl)-N-(2-pyrrolidin-1-yl-ethyl)-acetamide] | 3
17 | CC(C)(O)CN(Cc1ncccc1Cl)C(=O)CNc1cccc2c1CCN(CC1CC1)C2 [Example 251, N-(3-Chloro-pyridin-2-ylmethyl)-2-(2-cyclopropylmethyl-1,2,3,4-tetrahydro-isoquinolin-5-ylamino)-N-(2-hydroxy-2-methyl-propyl)-acetamide] | 24
18 | CCN1CCc2c(cccc2N(CC)CC(=O)N(CCN(C)C)Cc2ccccc2)C1 [Example 102, N-Benzyl-N-(2-dimethylamino-ethyl)-2-[ethyl-(2-ethyl-1,2,3,4-tetrahydro-isoquinolin-5-yl)-amino]-acetamide] | 370
19 | CN(C)CCN(Cc1ccc(Br)cc1)C(=O)CNc1cccc2c1CCN(CC1CC1)C2 [Example 238, N-(4-Bromo-benzyl)-2-(2-cyclopropylmethyl-1,2,3,4-tetrahydro-isoquinolin-5-ylamino)-N-(2-dimethylamino-ethyl)-acetamide] | 43
20 | CCCN1CCc2c(cccc2NCC(=O)N(CCN(C)C)Cc2ccccc2C(F)(F)F)C1 [Example 573, N-(2-Dimethylamino-ethyl)-2-(2-propyl-1,2,3,4-tetrahydro-isoquinolin-5-ylamino)-N-(2-trifluoromethyl-benzyl)-acetamide] | 3
21 | COCCN1CCc2c(/C=C/C(=O)N(CCC(C)(C)O)Cc3ccccc3C(F)(F)F)cccc2C1 [Example 325, (E)-N-(3-Hydroxy-3-methyl-butyl)-3-[2-(2-methoxy-ethyl)-1,2,3,4-tetrahydro-isoquinolin-5-yl]-N-(2-trifluoromethyl-benzyl)-acrylamide] | 334

The remaining lines, values ahead:

Row | EC50 [nM] | SMILES
22 | 6 | CC(C)(O)CN(Cc1ncccc1Br)C(=O)CNc1cccc2c1C(C)(C)CN(CC1CC1)C2 [Example 576, N-(3-Bromo-pyridin-2-ylmethyl)-2-(2-cyclopropylmethyl-4,4-dimethyl-1,2,3,4-tetrahydro-isoquinolin-5-ylamino)-N-(2-hydroxy-2-methyl-propyl)-acetamide]
23 | 86 | CNCCN(Cc1ncccc1C(F)(F)F)C(=O)CNc1cccc2c1CCN(C(=O)CC(C)C)C2 [compound 416]
24 | 34 | CCN1CCc2c(/C=C/C(=O)N(Cc3ccccc3C(F)(F)F)C3CCN(C)CC3)cccc2C1 [compound 151, (E)-3-(2-Ethyl-1,2,3,4-tetrahydro-isoquinolin-5-yl)-N-(1-methyl-piperidin-4-yl)-N-(2-trifluoromethyl-benzyl)-acrylamide]
25 | 32 | O=C(CNc1cccc2c1CN(CC1CC1)CC2)N(CC(=O)N1CC(F)(F)C1)Cc1ccccc1C(F)(F)F [compound 482, 2-(2-Cyclopropylmethyl-1,2,3,4-tetrahydro-isoquinolin-8-ylamino)-N-[2-(3,3-difluoro-azetidin-1-yl)-2-oxo-ethyl]-N-(2-trifluoromethyl-benzyl)-acetamide]
26 | 181 | CCN1CCc2cccc(NCC(=O)N(CCC#N)Cc3ccccc3C(F)(F)F)c2C1 [compound 516]
27 | 16 | C=CCN(C)CCN(Cc1ccccc1C(F)(F)F)C(=O)CNc1cccc2c1CN(CC=C)CC2 [compound 463, N-[2-(Allyl-methyl-amino)-ethyl]-2-(2-allyl-1,2,3,4-tetrahydro-isoquinolin-8-ylamino)-N-(2-trifluoromethyl-benzyl)-acetamide]
28 | 100 | CN(C)CCN(Cc1ccccc1)C(=O)CNc1cccc2c1CCN(C)C2 [compound 106]
29 | 276 | CCN1CCc2cccc(NCC(=O)N(Cc3ccccc3)C3CCNCC3)c2C1 [compound 377]
30 | 47 | O=C(CNc1cccc2c1CN(CC1CC1)CC2)N(CCN1CCC(F)(F)CC1)Cc1ccccc1C(F)(F)F [compound 474, 2-(2-Cyclopropylmethyl-1,2,3,4-tetrahydro-isoquinolin-8-ylamino)-N-[2-(4,4-difluoro-piperidin-1-yl)-ethyl]-N-(2-trifluoromethyl-benzyl)-acetamide]
31 | 35 | CN(C)CCN(Cc1ccccc1C(F)(F)F)C(=O)CNc1cccc2c1CN(C(=O)C(C)(C)C)CC2 [compound 551, N-(2-Dimethylamino-ethyl)-2-[2-(2,2-dimethyl-propionyl)-1,2,3,4-tetrahydro-isoquinolin-8-ylamino]-N-(2-trifluoromethyl-benzyl)-acetamide]
32 | 174 | CCN1CCc2cccc(NCC(=O)N(CCN(C)C)Cc3ccc(Cl)cn3)c2C1 [compound 530]
33 | 92 | CCN1CCc2cccc(NCC(=O)N(CCN(C)C)Cc3nc(C)cs3)c2C1 [compound 536]
34 | 257 | CN(C)CCN(Cc1ccccc1Cl)C(=O)CNc1cccc2c1CN(CC1CC1)CC2(C)C [compound 197]
35 | 110 | CNCCN(Cc1ccccc1C(F)(F)F)C(=O)CNc1cccc2c1CCN(C(=O)CC(C)(C)C)C2 [compound 393]
36 | 6 | CCN(CCN(Cc1ccccc1C(F)(F)F)C(=O)CNc1cccc2c1CCN(CC1CC1)C2)CC1(C)COC1 [compound 453]
37 | 78 | O=C(CNc1cccc2c1CN(CC1CC1)CC2)N(CCN1CCC(F)(F)C1)Cc1ccccc1C(F)(F)F [compound 479]

— patent publication US9920010B2, “CXCR7 receptor modulators” (IDORSIA PHARMACEUTICALS LTD, priority 2013, dated 2018)
